Consider five compounds from US8222218B2, “Cyclopropanated carbohydrates” (Seton Hall University, priority 2008, dated 2012).

Like-named read-outs stand apart in the source and are kept apart here.

Holding throughout (format): in vivo
Series [1] concerns metrazole-induced clonic seizures. The experiment in a line: Subcutaneous Metrazole Seizure Threshold Test (scMET), mice. The settings on record: mice; for responders at 30 mg/kg / responders at 100 mg/kg / responders at 300 mg/kg: Mus musculus, sc. On the procedure:
The subcutaneous injection of metrazole, which is a convulsant, produces clonic seizures in laboratory animals. The scMET test is designed to identify compounds that raise the seizure threshold of an animal. Mice are pretreated with test compound at 30, 100, and 300 mg/kg doses in a similar manner to the MES test. Rats are treated with a 50 mg/kg dose (p.o.). At the previously determined TPE of the test compound, the dose of metrazole that will induce convulsions in 97% of animals (CD97: 85 mg/kg mice) is injected into the loose fold of the skin in the midline of the neck. The animals are placed in isolation cages to minimize stress and observed for the next 30 minutes for the presence or absence of seizures. An episode of clonic spasms (approximately 3-5 seconds) of the fore and/or hindlimbs, jaws or vibrissae is taken as the endpoint.
(§1) Male and female albino CF1 mice (18-25 g, Charles River, Portage, Mich.) and male albino Sprague-Dawley rats (275-300 g, kindling test; 100-150 g all other tests; Charles River, Raleigh, N.C.) were used as experimental animals.

Series [2] is described as follows: Acute toxicity, minimal motor impairment (rotorod), mice. The note with it: mice, rotorod; for TOX 30 0.5 h (animals toxic/tested) / TOX 30 4 h (animals toxic/tested): 30 mg/kg; for TOX 100 0.5 h (animals toxic/tested) / TOX 100 4 h (animals toxic/tested): 100 mg/kg; for TOX 300 0.5 h (animals toxic/tested) / TOX 300 4 h (animals toxic/tested): 300 mg/kg. As to the method: Toxicity was measured using the minimal motor impairment test described below.
Animals are monitored for overt signs of impaired neurological or muscular function to assess a compound's toxicity. In mice, the rotorod procedure is used to disclose minimal muscular or neurological impairment. When a mouse is placed on a rotating rod (6 rpm), the animal can maintain its equilibrium for long periods of time. The animal is considered toxic if it falls off the rotating rod three times during a 1 minute period. In rats, minimal motor deficit is indicated by ataxia, which is manifested by an abnormal, uncoordinated gait.
On the technique in general: Falling from the rotarod earlier than controls is read as motor impairment.

A further series has as its system MES-induced seizures. As to the kind of experiment: Maximal Electroshock Seizure (MES) test, mice. The settings on record: mice, i.p.; for responders at 30 mg/kg / responders at 100 mg/kg / responders at 300 mg/kg: Mus musculus, ip.
Excerpt: The MES test is a model for generalized tonic-clonic seizures. The seizures are highly reproducible and electrophysiologically consistent with human seizures. The test provides information about a compound's ability to prevent the spread of seizure when all neuronal circuits of the brain are maximally active. 60 Hz of alternating current (50 mA in mice, 150 mA in rats) is applied for 2 seconds via corneal electrodes that have been treated with an electrolyte solution containing an anesthetic (0.5% tetracaine HCl). Mice are tested at a variety of intervals after an i.p. injection of […] solution of the test compound (commonly in a 0.5% solution of methylcellulose) at 30, 100, and 300 mg/kg doses. Rats are examined after a 30 mg/kg (per os, p.o.) dose that is applied in a volume of 0.04 mL/g. An animal is considered “protected” from MES-induced seizures upon removal of the hind limb extensor component of the seizure.
as §1

Setting [3] is: 30 mg/kg, 0.4 h, read-out: scMET 30 0.4 h (animals protected/tested).
The mark [4] stands for this setting: 30 mg/kg, 0.5 h, read-out: scMET 30 0.5 h (animals protected/tested).
The mark [5] stands for this setting: 100 mg/kg, 0.4 h, read-out: scMET 100 0.4 h (animals protected/tested).
[6] abbreviates: 100 mg/kg, 0.5 h, read-out: scMET 100 0.5 h (animals protected/tested).
The mark [7] stands for this setting: 300 mg/kg, 0.4 h, read-out: scMET 300 0.4 h (animals protected/tested).
Setting [8] is: 300 mg/kg, 0.5 h, read-out: scMET 300 0.5 h (animals protected/tested).
Setting [9] is: 30 mg/kg, 0.5 h, read-out: MES 30 0.5 h (animals protected/tested).
[10] abbreviates: 30 mg/kg, 4 h, read-out: MES 30 4 h (animals protected/tested).
Where [11] appears, read: 100 mg/kg, 0.5 h, read-out: MES 100 0.5 h (animals protected/tested).
Setting [12] is: 100 mg/kg, 4 h, read-out: MES 100 4 h (animals protected/tested).
Setting [13] is: 300 mg/kg, 0.5 h, read-out: MES 300 0.5 h (animals protected/tested).
Setting [14] is: 300 mg/kg, 4 h, read-out: MES 300 4 h (animals protected/tested).

As to `CCOC(=O)[C@@H]1[C@H]2O[C@@H]3COC(C)(C)O[C@H]3[C@H](OC)[C@H]21` [Compound 9, Ethyl (4aR,5aS,6aS,7R,7aS)-7-methoxy-2.2-dimethylhexahydro-4H-cyclopropa[5,6]pyrano[3,2-d][1,3]dioxine-6-carboxylate], the responders at 30 mg/kg (in series [1] (setting [3]); in series [1] (setting [4]); in the series with MES-induced seizures (setting [9]); with MES-induced seizures (setting [10])) was 0% each time. For the same compound, the responders at 100 mg/kg (in series [1] (setting [5]); in series [1] (setting [6]); with MES-induced seizures (setting [11]); with MES-induced seizures (setting [12])) was 0% throughout. For the same compound, the responders at 300 mg/kg (in series [1] (setting [7]); in series [1] (setting [8]); with MES-induced seizures (setting [13]); in the series on MES-induced seizures (setting [14])) was 0% each time. The “TOX 30 0.5 h (animals toxic/tested)” value in series [2] was 0/4. Moreover, in series [2], the “TOX 30 4 h (animals toxic/tested)” value is recorded as 0/2. The “TOX 100 0.5 h (animals toxic/tested)” value in series [2] was 0/8. In addition, the “TOX 100 4 h (animals toxic/tested)” value in series [2] was 0/4. For the same compound, the “TOX 300 0.5 h (animals toxic/tested)” value in series [2] was 0/4. Further, in series [2], the “TOX 300 4 h (animals toxic/tested)” value was 0/2.

On to `COC(=O)C1[C@@H]2[C@@H](O)[C@@H]3OC(C)(C)OC[C@H]3O[C@H]12` (stereo partly drawn) [Compound 10, Methyl (4aR,5aS,6aR,7R,7aS)-7-hydroxy-2,2-dimethylhexahydro-4H-cyclopropa[5,6]pyrano[3,2-d][1,3]dioxine-6-carboxylate], for which the responders at 30 mg/kg (in series [1] (setting [3]); in series [1] (setting [4]); in the series with MES-induced seizures (setting [9]); in the series with MES-induced seizures (setting [10])) was 0% throughout. The responders at 100 mg/kg (in series [1] (setting [5]); in series [1] (setting [6]); in the series on MES-induced seizures (setting [11]); in the series on MES-induced seizures (setting [12])) was 0% throughout. Besides, the responders at 300 mg/kg (in series [1] (setting [7]); in series [1] (setting [8]); with MES-induced seizures (setting [13]); in the series with MES-induced seizures (setting [14])) was 0% each time. Moreover, the “TOX 30 0.5 h (animals toxic/tested)” value in series [2] is reported as 0/4. Besides, in series [2], the “TOX 30 4 h (animals toxic/tested)” value is listed as 0/2. Also, the “TOX 100 0.5 h (animals toxic/tested)” value in series [2] is given as 0/8. Moreover, in series [2], the “TOX 100 4 h (animals toxic/tested)” value is given as 0/4. For the same compound, the “TOX 300 0.5 h (animals toxic/tested)” value in series [2] is 0/4. The “TOX 300 4 h (animals toxic/tested)” value in series [2] is 0/2.

With `COC(=O)[C@H]1C2O[C@@H]3CO[Si](C(C)(C)C)(C(C)(C)C)O[C@@H]3[C@H](O)[C@@H]21` (stereo partly drawn) [Compound 14b, (1R,1as,2R,2aR,6aR)-4,4-di-tert-butyl-2-hydroxy-hexahydro-3,5,7-trioxa-4-silacyclopropa[b]naphthalene-1-carboxylic acid (S)-methyl ester], the “scMET 30 0.4 h (animals protected/tested)” value in series [1] (30 mg/kg, 0.4 h) was 0/1. In addition, the “scMET 30 0.5 h (animals protected/tested)” value in series [1] (30 mg/kg, 0.5 h) is reported as 0/1. Besides, in series [1] (100 mg/kg, 0.4 h), the “scMET 100 0.4 h (animals protected/tested)” value is 0/1. Moreover, the “scMET 100 0.5 h (animals protected/tested)” value in series [1] (100 mg/kg, 0.5 h) is listed as 0/1. The “scMET 300 0.4 h (animals protected/tested)” value in series [1] (300 mg/kg, 0.4 h) is 0/1. Moreover, in series [1] (300 mg/kg, 0.5 h), the “scMET 300 0.5 h (animals protected/tested)” value is on record as 0/1. Besides, in series [2], the “TOX 30 0.5 h (animals toxic/tested)” value is recorded as 0/4, the “TOX 30 4 h (animals toxic/tested)” value was 0/2, the “TOX 100 0.5 h (animals toxic/tested)” value is 2/8 and the “TOX 100 4 h (animals toxic/tested)” value is on record as 0/4. Also, in series [2], the “TOX 300 0.5 h (animals toxic/tested)” value is on record as 4/4 and the “TOX 300 4 h (animals toxic/tested)” value is given as 0/2. In the series on MES-induced seizures (30 mg/kg, 0.5 h), the “MES 30 0.5 h (animals protected/tested)” value was 0/1. For the same compound, the “MES 30 4 h (animals protected/tested)” value in the series on MES-induced seizures (30 mg/kg, 4 h) is reported as 0/1. Further, the “MES 100 0.5 h (animals protected/tested)” value with MES-induced seizures (100 mg/kg, 0.5 h) is given as 0/3. Besides, the “MES 100 4 h (animals protected/tested)” value in the series with MES-induced seizures (100 mg/kg, 4 h) was 0/3. In the series with MES-induced seizures (300 mg/kg, 0.5 h), the “MES 300 0.5 h (animals protected/tested)” value was 0/1. For the same compound, in the series with MES-induced seizures (300 mg/kg, 4 h), the “MES 300 4 h (animals protected/tested)” value is on record as 0/1.

As for `CCOC(=O)C1[C@@H]2[C@@H](OS(=O)(=O)N(C)C)[C@@H]3O[C@H](c4ccc(OC)cc4)OC[C@H]3O[C@H]12` (stereo partly drawn) [Compound 17a, Ethyl (2R,4aR,5aS,6aS,7R,7aR)-7-[(dimethylsulfamoyl)oxy]-2-(4-methoxyphenyl)hexahydro-4H-cyclopropa[5,6]pyrano[3,2-d][1,3]dioxine-6-carboxylate], the responders at 30 mg/kg (in series [1] (setting [3]); in series [1] (setting [4]); with MES-induced seizures (setting [9]); in the series on MES-induced seizures (setting [10])) was 0% in each case. In addition, the responders at 100 mg/kg (in series [1] (setting [5]); in series [1] (setting [6]); in the series on MES-induced seizures (setting [11]); with MES-induced seizures (setting [12])) was 0% each time. Also, the responders at 300 mg/kg (in series [1] (setting [7]); in series [1] (setting [8]); with MES-induced seizures (setting [13]); in the series on MES-induced seizures (setting [14])) was 0% in each case. The “TOX 30 0.5 h (animals toxic/tested)” value in series [2] is 0/4. Also, the “TOX 30 4 h (animals toxic/tested)” value in series [2] is reported as 0/2. Moreover, the “TOX 100 0.5 h (animals toxic/tested)” value in series [2] is reported as 0/8. Further, the “TOX 100 4 h (animals toxic/tested)” value in series [2] is 0/4. In addition, in series [2], the “TOX 300 0.5 h (animals toxic/tested)” value is recorded as 0/4. Besides, in series [2], the “TOX 300 4 h (animals toxic/tested)” value was 0/2.

On to `CCOC(=O)C1[C@@H]2[C@@H](OC)[C@@H]3O[C@H](c4ccc(OC)cc4)OC[C@H]3O[C@H]12` (stereo partly drawn) [Compound 18, Ethyl (2R,4aR,5aS,6aS,7R,7aS)-7-methoxy-2-(4-methoxyphenyl)hexahydro-4H-cyclopropa[5,6]pyrano[3,2-d][1,3]dioxine-6-carboxylate], for which the responders at 30 mg/kg (in series [1] (setting [3]); in series [1] (setting [4]); in the series with MES-induced seizures (setting [9]); in the series with MES-induced seizures (setting [10])) was 0% each time. Further, the responders at 100 mg/kg (in series [1] (setting [5]); in series [1] (setting [6]); with MES-induced seizures (setting [11]); with MES-induced seizures (setting [12])) was 0% each time. Further, the responders at 300 mg/kg (in series [1] (setting [7]); in series [1] (setting [8]); in the series with MES-induced seizures (setting [13]); in the series with MES-induced seizures (setting [14])) was 0% throughout. Besides, the “TOX 30 0.5 h (animals toxic/tested)” value in series [2] is 0/4. In series [2], the “TOX 30 4 h (animals toxic/tested)” value was 0/2. Further, the “TOX 100 0.5 h (animals toxic/tested)” value in series [2] is 0/8. Also, in series [2], the “TOX 100 4 h (animals toxic/tested)” value is on record as 0/4. The “TOX 300 0.5 h (animals toxic/tested)” value in series [2] is reported as 0/4. In addition, in series [2], the “TOX 300 4 h (animals toxic/tested)” value is on record as 0/2.
